Measured values from patent publication US6894185B2, “Substituted chiral allosteric hemoglobin modifiers” (Allós Therapeutics, Inc., priority 1999, dated 2005).
Values joined by “and” are separate entries in the source; they are usually repeats but may differ in a detail not shown here. Equal values may be shown once.

What was measured:
[1] = molecular target: T1, purified stripped human adult hemoglobin (Homo sapiens, UniProt P68871+P69905); assay: Hemoglobin solution oxygen equilibrium studies (HEMOX-analyzer); format: biochemical; details: 0.5 mM effector, 100 mM bis-Tris buffer, pH 7.2
T1 construct: using purified stripped human adult hemoglobin as described previously; from tissue

[2] = molecular target: T1, purified stripped human adult hemoglobin; assay: as above; format: biochemical; details: for n50 (Hill coefficient at 50% saturation): n50 control 2.7; for P50e/P50c: ratio to P50 control with no effector (5.0 mmHg)
Procedure: Structure-allosteric activity relationships were determined from the synthetic chiral effectors comparing the shift in the oxygen binding curve of Hb solutions using a Hemox-Analyzer. In vitro biological activity testing in the presence of plasma proteins was also performed on selected enantiomers and racemates (multi-point tonometry and blood gas analysis) to screen for candidates with potential clinical use. SAR studies compared the degree in shift in P50 values, i.e., the partial pressure of molecular oxygen necessary to half-saturate hemoglobin. An effector that decreases Hb oxygen affinity increases the P50 value relative to the control. Thus, the activity or potency of each analog could be expressed by the ratio P50 (effector)/P50(control). […] The slope of the log of the oxygen binding curves is known as the Hill coefficient. The Hill coefficient measures the degree of cooperativity in binding for an allosteric protein, the normal range for human blood is 2.7-3.2.
The effectors were prepared as 10 mM stock solutions in 100 mM NaCl bis-Tris buffer, pH 7.2. After the addition of an excess of NaHCO3, the solution was warmed to 60° C. and stirred for several hours. The solutions were back titrated carefully to pH 7.2 at 25° C. prior to use. Oxygen equilibrium measurements were performed with the HEMOX-analyzer (TCS Medical products, Southampton, Pa.) using purified stripped human adult hemoglobin as described previously. 4 mL of buffer, 100 mM NaCl, 50 mM bis-Tris at pH 7.2, is added to a cuvette in the HEMOX, followed by 200 μL of the 10 mM effector stock solution. Hemoglobin is then added to achieve a final Hb concentration of […] on heme basis. Catalase (20 μg/mL) and 50 mM EDTA were added to limit oxidation of the hemes. […] The saturation of hemoglobin was determined spectrophotometrically with a dual wavelength spectrophotometer (577 nm and 586.2 nm). The solution was stirred constantly during the 45-60 min recordings. The P50 and n50 values were calculated by linear regression analysis from data points comprised between 40 and 60% oxygen saturation.

hemoglobin = molecular target: T2, hemoglobin (Homo sapiens, UniProt P68871+P69905); assay: In vitro whole blood studies (multi-point tonometry and blood gas analysis); format: cell-based; details: for ΔP50 ± S.D. (P50 effector − P50control) / P50e (P50 value in the presence of the effector): Table VI, 2.5 mM Hb, 5.0 mM effector; for P50e (P50 value in the presence of the effector): single runs, DMSO stock
T2 construct: The whole blood samples were collected in heparinized tubes from healthy volunteers; from tissue; host or cells: human whole blood (heparinized) from healthy volunteers
Procedure: Structure-allosteric activity relationships were determined from the synthetic chiral effectors comparing the shift in the oxygen binding curve of Hb solutions using a Hemox-Analyzer. In vitro biological activity testing in the presence of plasma proteins was also performed on selected enantiomers and racemates (multi-point tonometry and blood gas analysis) to screen for candidates with potential clinical use. SAR studies compared the degree in shift in P50 values, i.e., the partial pressure of molecular oxygen necessary to half-saturate hemoglobin. An effector that decreases Hb oxygen affinity increases the P50 value relative to the control. Thus, the activity or potency of each analog could be expressed by the ratio P50 (effector)/P50(control). Tables and II and III summarize the p50 values obtained using human whole blood, while Tables IV and V summarize the P50 and the Hill coefficient values (n50) at half-saturation obtained using Hemox-analyzer. The slope of the log of the oxygen binding curves is known as the Hill coefficient. The Hill coefficient measures the degree of cooperativity in binding for an allosteric protein, the normal range for human blood is 2.7-3.2. Table VI presents the results from the whole blood studies given as a ΔP50 and Hill coefficient (n50) values for the enantiomers and racemates.
The whole blood samples were collected in heparinized tubes from healthy volunteers and stored over ice. The sodium salts of the compounds were prepared as described earlier. A 200 mM stock solution of the effector was prepared in DMSO. A 5.0 mM test solution was prepared from 50 μL of the 200 mM test solution and 1950 μL of whole blood. The blood samples were incubated in IL 237 tonometers (Instrumentation Laboratories, Inc. Lexington, Mass.) for approximately 10-12 min at 37° C. and equilibrated at three separate concentrations of O2 (20%, 40%, and 60%). After equilibration at each concentration of O2, a sample was removed via syringe and aspirated into a IL 1420 Automated Blood Gas Analyzer (Instrumentation Laboratories, Inc. Lexington, Mass.) and a IL 482 and IL 682 Co-oximeter (Instrumentation Laboratories, Inc. Lexington, Mass.) to determine the pH, pCO2, pO2 and the hemoglobin oxygen saturation values (sO2), respectively. The measured values for pO2 and sO2 at each oxygen saturation level were then subjected to a non-linear regression analysis using the program Scientist (Micromath, Salt Lake City, Utah) to calculate the P50 and Hill coefficient values.

[3] = Table IV, 0.5 mM effector, pH 7.2
[4] = Table V resolved enantiomers, 0.5 mM effector, pH 7.2

T2 sequence (P69905 2-142 limits assumed): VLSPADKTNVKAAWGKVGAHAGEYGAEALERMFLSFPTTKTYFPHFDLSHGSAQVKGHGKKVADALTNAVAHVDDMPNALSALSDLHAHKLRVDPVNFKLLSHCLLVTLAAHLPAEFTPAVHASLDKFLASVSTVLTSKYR
T2 sequence (P68871 2-147 limits assumed): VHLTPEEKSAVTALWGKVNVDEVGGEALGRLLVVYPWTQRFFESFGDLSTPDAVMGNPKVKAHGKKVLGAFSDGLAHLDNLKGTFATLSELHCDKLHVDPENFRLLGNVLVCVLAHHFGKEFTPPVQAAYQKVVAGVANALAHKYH
T1 sequence (P69905 2-142 limits assumed): as the sequence (P69905 2-142 limits assumed) above
T1 sequence (P68871 2-147 limits assumed): as the sequence (P68871 2-147 limits assumed) above

P50e (oxygen pressure at which Hb is 50% saturated with oxygen in the presence of the effector) ([1]; Table IV) [mmHg] | n50 (Hill coefficient at 50% saturation) [2, 3] | P50e/P50c [2, 3] | Whole Blood Δp50 mm Hg (hemoglobin; Table II) [mm Hg] | ΔP50 ± S.D. (P50 effector − P50control) (hemoglobin) [mmHg] | P50e (P50 value in the presence of the effector) (hemoglobin) | Whole Blood Δp50 mm Hg (hemoglobin; Table III) [mm Hg] | Molecule | P50e (oxygen pressure at which Hb is 50% saturated with oxygen in the presence of the effector) ([1]; Table V resolved enantiomers) [mmHg] | n50 (Hill coefficient at 50% saturation) [2, 4] | P50e/P50c ([2]; Table V resolved enantiomers)
22 | 2.3 | 4.3 | 45.4 | 40.1 ± 0.9 | 66 mmHg and 67.2 mmHg | – | Cc1cc(C)cc(NC(=O)Cc2ccc(OC3(C(=O)O)CCCC3C)cc2)c1 (racemic) [Compound 1, 1-[4-[[(3,5-dimethylanilino)carbonyl]methyl]phenoxy]-2-methylcyclopentane carboxylic acid] | – | – | –
9.3 | 2.6 | 1.9 | – | 18.2 ± 2.6 | 47.2 mmHg and 43.5 mmHg | – | Cc1cc(C)cc(NC(=O)Cc2ccc(OC(C)C(=O)O)cc2)c1 (racemic) [Compound 18, 2-[4-[[(3,5-dimethylanilino)carbonyl]methyl]phenoxy]-propionic acid] | – | – | –
– | – | – | – | 20.7 ± 0.7 | 47.4 mmHg and 48.7 mmHg | – | Cc1cc(C)cc(NC(=O)Cc2ccc(OC(C)C(=O)O)cc2)c1 (single isomer, unassigned; (+)) [(+) 18, (+)-2-[4-[[(3,5-dimethylanilino)carbonyl]methyl]phenoxy]-propionic acid] | 9.8 | 2.6 | 2
– | – | – | – | – | – | – | CCC(Oc1ccc(CC(=O)Nc2cc(C)cc(C)c2)cc1)C(=O)O (single isomer, unassigned; (+)) [(+) 20] | 18 | 2.7 | 3.6
– | – | – | – | 12.3 ± 0.6 | 39.7 mmHg and 40.5 mmHg | – | Cc1cc(C)cc(NC(=O)Cc2ccc(OC(C)C(=O)O)cc2)c1 (single isomer, unassigned; (-)) [(−) 18, (−)-2-[4-[[(3,5-dimethylanilino)carbonyl]methyl]phenoxy]-propionic acid] | 6.6 | 2.5 | 1.3
– | – | – | – | – | – | – | CCC(Oc1ccc(CC(=O)Nc2cc(C)cc(C)c2)cc1)C(=O)O (single isomer, unassigned; (-)) [(−) 20] | 9.8 | 2.8 | 2
7.6 | 2.4 | 1.5 | 15.2 | – | – | – | Cc1cc(C)cc(NC(=O)Cc2ccc(OC3(C(=O)O)CCOC3C)cc2)c1 (centres unmarked) [Compound 2, 3-[4-[[(3,5-dimethylanifino)carbonyl]methyl]phenoxy]-2-methyltetrahydro-3-furan carboxylic acid] | – | – | –
13 | 2.5 | 2.6 | 20.3 | – | – | – | Cc1cc(C)cc(NC(=O)Cc2ccc(OC3(C(=O)O)CCC(C)C3)cc2)c1 (centres unmarked) [Compound 3] | – | – | –
7.6 | 2.4 | 1.5 | 17.8 | – | – | – | Cc1cc(C)cc(NC(=O)Cc2ccc(OC3(C(=O)O)CCOCC3)cc2)c1 [Compound 4, 4-[4-[[(3,5-dimethylanilino)carbonyl]methyl]phenoxy]tetrahydro-2H-4-pyrancarboxylic acid] | – | – | –
13 | 2.6 | 2.5 | 12.7 | – | – | – | CC1CCC(Oc2ccc(CC(=O)Nc3ccc4c(c3)CCC4)cc2)(C(=O)O)C1 (centres unmarked) [Compound 5] | – | – | –
12 | 2.7 | 2.3 | 25.6 | – | – | – | CCCC(C)(Oc1ccc(CC(=O)Nc2cc(C)cc(C)c2)cc1)C(=O)O (centres unmarked) [Compound 6, 2-[4-[[(3,5-dimethylanilino)carbonyl]methyl]phenoxy]-2-methylpentanoic acid] | – | – | –
14 | 2.6 | 2.8 | 25.0 | – | – | – | CC1CCCC1(Oc1ccc(CC(=O)Nc2ccc3c(c2)CCC3)cc1)C(=O)O (centres unmarked) [Compound 7] | – | – | –
22 | 2.4 | 4.4 | 25 | – | – | – | Cc1cc(Cl)cc(NC(=O)Cc2ccc(OC3(C(=O)O)CCCC3C)cc2)c1 (centres unmarked) [Compound 8, 1-[4-[[(3-chloro-5-methylanilino)carbonyl]methyl]phenoxy]-2-methylcyclopentane carboxylic acid] | – | – | –
5.9 | 2.5 | 1.2 | – | – | – | – | Cc1cc(C)cc(NC(=O)Cc2ccc(OC(F)C(=O)O)cc2)c1 (centres unmarked) [Compound 19, 2-[4-[[3,5-dimethylanilino)carbonyl]methyl]phenoxy-2-fluoroacetic acid] | – | – | –
13 | 2.4 | 2.7 | – | – | – | – | CCC(C)(Oc1ccc(CC(=O)Nc2cc(C)cc(C)c2)cc1)C(=O)O (centres unmarked) [Compound 21, 2-[4-[[(3,5-dimethylanilino)carbonyl]methyl]phenoxy]-2-methylbutanoic acid] | – | – | –
21 | 2.4 | 4.4 | – | – | – | – | Cc1cc(Cl)cc(NC(=O)Cc2ccc(OC(C)(C)C(=O)O)cc2)c1 [KDD86, reference compound] | – | – | –
15 | 2.6 | 3 | – | – | – | – | CC(C)(Oc1ccc(CC(=O)Nc2ccc3c(c2)CCC3)cc1)C(=O)O [RSR46, reference compound] | – | – | –
– | – | – | – | – | – | 10 | (2-(2-{4-[(3,5-Dimethyl-phenylcarbamoyl)-methyl]-phenoxy}-2-methyl-propionylamino)-4-pentanoic acid [Compound 29] | – | – | –

Molecule | P50e (oxygen pressure at which Hb is 50% saturated with oxygen in the presence of the effector) ([1]; Table IV) [mmHg] | n50 (Hill coefficient at 50% saturation) [2, 3] | P50e/P50c [2, 3] | Whole Blood Δp50 mm Hg (hemoglobin; Table II) [mm Hg] | ΔP50 ± S.D. (P50 effector − P50control) (hemoglobin) [mmHg] | P50e (P50 value in the presence of the effector) (hemoglobin) | Whole Blood Δp50 mm Hg (hemoglobin; Table III) [mm Hg] | P50e (oxygen pressure at which Hb is 50% saturated with oxygen in the presence of the effector) ([1]; Table V resolved enantiomers) [mmHg] | n50 (Hill coefficient at 50% saturation) [2, 4] | P50e/P50c ([2]; Table V resolved enantiomers)
CCC(Oc1ccc(CC(=O)Nc2cc(C)cc(C)c2)cc1)C(=O)O (racemic) [Compound 20, 2-[4-[[(3,5-dimethylanilino)carbonyl]methyl]phenoxy]-butanoic acid] | 13 | 2.7 | 2.6 | – | – | – | – | – | – | –
